Reference: US20100098689A1, “4-1 bb ligand in inflammatory diseases” (The Scripps Research Institute, priority 2006, published 2010)
Peptide text beside a SMILES is read from it. * marks the point of attachment. Cbz = O=C(OCc1ccccc1)*

Key:
Assay type in all cases: cell-based, mouse
4-1BBL mRNA = assay: Semiquantitative PCR of LPS-induced 4-1BBL mRNA in macrophages; conditions: for LPS-induced 4-1BBL mRNA / 4-1BBL expression: pretreated 1 hour with 20 μM sulfasalazine, 10 μM SB203580, 5 μM SP600125 or 10 μM PD98059, then LPS, MG-132 data not shown
Description: (A) Immunoblot of 4-1BBL in lysates from wild-type macrophages and macrophages deficient in TLR4 (TLR4 KO), MyD88 (MyD88 KO) or TRIF (TRIF KO), treated with LPS (time, above lanes). LPS induces quick expression of 4-1BBL in macrophages in a TLR4-, MyD88-, and TRIF-dependent manner. (B) Semiquantitative PCR of 4-1BBL mRNA in wild-type macrophages left without pretreatment (None) or pretreated for 1 hour with inhibitors of NF-κB (20 μM sulfasalazine), p38 (10 μM SB203580), Jnk (5 μM SP600125) or MEK (10 μM PD98059) and then treated with LPS (time, above lanes). […] (C) Real-time RCR analysis of the stability of LPS-induced 4-1BBL mRNA (1 hour of treatment; LPS) or ectopically expressed 4-1BBL mRNA at 18 hour after infection with recombinant adenovirus encoding 4-1BBL (Adv). Actinomycin D was used to inhibit transcription. Values are the percent remaining relative to the value at 0 hour (set at 100%). LPS-induced alterations in mRNA stability were also involved in LPS-induced 4-1BBL expression. (D) Flow cytometry of 4-1BBL expression by wild-type peritoneal macrophages treated with LPS (time, key): right, surface expression; left, total expression in cells made permeable with 0.1% saponin. LPS-induced 4-1BBL is located on the cell surface. (E) Immunofluorescence microscopy of wild-type peritoneal macrophages preincubated for 1 hour with (+) or without (−) brefeldin A (3 μg/mL), then treated with LPS (time, left margin) and immunostained with anti-4-1BBL. Original magnification, ×100. Brefeldin A blocks protein translocation to the cell surface by inhibiting its translocation from the endoplasmic reticulum to the Golgi apparatus. (F) Semiquantitative PCR of 4-1BBL and TNF mRNA in lysates of cells treated as described in E. Brefeldin A neither affected the LPS-induced increase in 4-1BBL mRNA nor influenced LPS-induced TNF mRNA after 1 hour, but did reduce TNF mRNA at 2, 4 and 6 hours. GAPDH (A,B,F): glyceraldehyde phosphate dehydrogenase (loading control). Data are representative of three independent experiments.
Semiquantitative PCR was performed as described by Kim et al., J. Exp. Med. 197:1441-52 (2003). For real-time PCR, 0.5 μg of total RNA were used to prepare cDNA using oligo(dT)12 as a primer. The SYBR green PCR Master Mix kit (Applied Biosystems) was used in the real-time PCR analysis.
To determine whether the newly synthesized 4-1BBL needs to be on the cell surface in order to regulate the expression of TNF, peritoneal macrophages were preincubated with or without brefeldin A (3 μg/mL) for 1 hour and were then treated with LPS for the indicated times. Immunostaining was performed using anti-4-1BBL antibodies. 4-1BBL and TNF mRNA were analyzed by semiquantitative PCR. GAPDH was used as control. Brefeldin A is a specific inhibitor that blocks protein translocation to the cell surface by inhibiting its translocation from the endoplasmic reticulum to the Golgi apparatus Klausner et al., J. Cell Biol. 116:1071-1080 (1992) (FIG. 7E).

wild-type macrophages = assay: ELISA of TNF production by macrophages infected with adenovirus expressing 4-1BBL; conditions: inhibitor added 6 h after infection (20 μM sulfasalazine, 10 μM SB203580, 5 μM SP600125, 10 μM PD98059), analyzed 24 hour after infection
Description: FIG. 10A-I indicate that two sequential TLR4 complexes exist. (A) Immunoassay of wild-type macrophages treated with LPS (time, above lanes); total cell lysates (Lysates; top) or lysates immunoprecipitated with anti-TLR4, anti-MyD88 or anti-4-1BBL were analyzed by immunoblot with anti-4-1BBL, anti-TLR4 and/or anti-MyD88. Dashed outline, isotype antibody (negative control for immunoprecipitation); solid outlines, positive control for immunoblot of 4-1BBL or MyD88. In LPS-treated macrophages, the MyD88-TLR4 complex is responsible for the initial cellular responses, and the 4-1BBL-TLR4 complex is involved in sustaining TNF production. […] (C) 4-1BBL interacts with TRAF6, but not TRAF2. (D) Knockdown of TRAF6 impaired LPS, PolyI:C, and IL-1β induced cytokine production, but has no effect on TNF-induced IL-6 production. […]

TNF mRNA = assay: Semiquantitative PCR of LPS-induced TNF mRNA in peritoneal macrophages; conditions: preincubated 1 hour with brefeldin A 3 μg/mL
Description: (A) Immunoblot of 4-1BBL in lysates from wild-type macrophages and macrophages deficient in TLR4 (TLR4 KO), MyD88 (MyD88 KO) or TRIF (TRIF KO), treated with LPS (time, above lanes). LPS induces quick expression of 4-1BBL in macrophages in a TLR4-, MyD88-, and TRIF-dependent manner. (B) Semiquantitative PCR of 4-1BBL mRNA in wild-type macrophages left without pretreatment (None) or pretreated for 1 hour with inhibitors of NF-κB (20 μM sulfasalazine), p38 (10 μM SB203580), Jnk (5 μM SP600125) or MEK (10 μM PD98059) and then treated with LPS (time, above lanes). […] (C) Real-time RCR analysis of the stability of LPS-induced 4-1BBL mRNA (1 hour of treatment; LPS) or ectopically expressed 4-1BBL mRNA at 18 hour after infection with recombinant adenovirus encoding 4-1BBL (Adv). Actinomycin D was used to inhibit transcription. Values are the percent remaining relative to the value at 0 hour (set at 100%). LPS-induced alterations in mRNA stability were also involved in LPS-induced 4-1BBL expression. […]
To determine whether the newly synthesized 4-1BBL needs to be on the cell surface in order to regulate the expression of TNF, peritoneal macrophages were preincubated with or without brefeldin A (3 μg/mL) for 1 hour and were then treated with LPS for the indicated times. […] 4-1BBL and TNF mRNA were analyzed by semiquantitative PCR. […]

Row | Compound | LPS-induced 4-1BBL mRNA / 4-1BBL expression (4-1BBL mRNA) | 4-1BBL-mediated TNF production (wild-type macrophages) | LPS-induced TNF mRNA at 2, 4, and 6 hours (TNF mRNA; LPS 2, 4, 6 hours) | LPS-induced TNF mRNA after 1 hour (TNF mRNA; LPS 1 hour) | LPS-induced increase in 4-1BBL mRNA (4-1BBL mRNA; preincubated 1 hour with brefeldin A 3 μg/mL, then LPS)
1 | CC(C)C[C@@H](C=O)NC(=O)[C@H](CC(C)C)NC(=O)[C@H](CC(C)C)NC(=O)OCc1ccccc1 [MG-132] (Cbz-Leu-Leu-Leu-aldehyde) | effectively inhibited | – | – | – | –
2 | C[S+]([O-])c1ccc(-c2nc(-c3ccncc3)c(-c3ccc(F)cc3)[nH]2)cc1 (stereo not drawn) [SB203580] | some inhibitory effects | reduced | – | – | –
3 | COc1cccc(-c2cc(=O)c3ccccc3o2)c1N [PD98059] | some inhibitory effects | reduced | – | – | –
4 | C[C@H]1CCC/C=C/[C@@H]2C[C@H](O)C[C@H]2[C@H](O)/C=C/C(=O)O1 [Brefeldin A] | – | – | did reduce | did not influence | did not affect
5 | O=C(O)c1cc(/N=N/c2ccc(S(=O)(=O)Nc3ccccn3)cc2)ccc1O [sulfasalazine] | effectively inhibited | – | – | – | –
